Read-outs that look alike come from different tables or passages of the source.
Columns and labels:
SCC-25 cells [1] = test: Combination studies (single and sequential combination dosing), % cytotoxicity in SCC-25 cells; conditions: Homo sapiens, SCC-25, SCC-25
Protocol: (§1) Logarithmically growing cells were plated at a density of 3×10^3 cells/well and allowed to recover overnight. […] After 72 hours, cell toxicity was determined by CCK-8 (Cell Counting Kit-8) reagent (Dojindo Molecular Technologies, Japan); WST-8 (2-(2-methoxy-4-nitrophenyl)-3-(4-nitrophenyl)-5-(2, 4-disulfophenyl)]-2H-tetrazolium, monosodium salt) assay. In accordance with the manufacturer's instructions, 5 μl/well CCK-8 reagent was added and plates were incubated for 2 hours. The toxicity was determined by measuring the absorbance on Tecan Sapphire multi-fluorescence micro-plate reader (Tecan, Germany, GmbH) at a wavelength of 450 nm corrected to 650 nm and normalized to controls.
(§2) CCK-8 allows convenient assays using Dojindo's tetrazolium salt, WST [8[(2-(2-methoxy-4-nitrophenyl)-3-(4-nitrophenyl)-5-(2,4-disulfophenyl)-2H-tetrazolium, monosodium salt], which produces a water-soluble formazan dye upon bioreduction in the presence of an electron carrier, 1-Methoxy PMS. CCK-8 solution is added directly to the cells; no pre-mixing of components is required. CCK-8 is a sensitive nonradioactive colorimetric assay for determining the number of viable cells in cell proliferation and cytotoxicity assays. WST-8 is bio-reduced by cellular dehydrogenases to an orange formazan product that is soluble in tissue culture medium. The amount of formazan produced is directly proportional to the number of living cells. The detection sensitivity of cell proliferation assays using WST-8 is higher than assays using the other tetrazolium salts such as MIT, XTT, MTS or WST-1. Optical Density was determined at measurement wavelength of 450 nm and reference wave length of 630 nm.
Sorafenib in the following dose of final concentration 0.18 μM and compound A in the following doses of final concentration 0.1 μM, 0.4 μM and 4.1 μM were analyzed in single dose and in all possible combinations of the dose range for the two anticancer agents mentioned above. The sequence of treatment is as follows; the SCC-25 cells were treated with sorafenib for 0 to 24 hrs. At the end of 24 hrs the cells were washed two times with plain MEM (minimum essential media) medium. Fresh MEM with 10% serum (200 μL/well) was added, followed by treatment with compound A from 24 hrs to 96 hrs.
(§3) Sorafenib in the following dose of final concentration 0.18 μM and compound B in the following doses of final concentration 0.2 μM, 1.1 μM and 4.8 μM were analyzed in single dose and in all possible combinations of the dose range for the two anticancer agents mentioned above. The sequence of treatment is as follows; the SCC-25 cells were treated with sorafenib for 0 to 24 hrs. At the end of 24 hrs the cells were washed two times with plain MEM medium. Fresh MEM with 10% serum (200 μL/well) was added, followed by treatment with compound B from 24 hrs to 96 hrs.
Lapatinib in the following dose of final concentration 0.2 μM and compound A in the following doses of final concentration 0.2 μM, 0.5 μM and 3.3 μM were analyzed in single dose and in all possible combinations of the dose range for the two drugs mentioned above. The sequence of treatment is as follows; the SCC-25 cells were treated with lapatinib for 0 to 24 hrs. At the end of 24 hrs the cells were washed two times with plain MEM medium. Fresh MEM with 10% serum (200 μL/well) was added, followed by treatment with compound A from 24 hrs to 96 hrs.
(§4) Lapatinib in the following dose of final concentration 0.2 μM and compound B in the following doses of final concentration 0.2 μM, 1.1 μM and 4.8 μM were analyzed in single dose and in all possible combinations of the dose range for the two drugs mentioned above. The sequence of treatment is as follows; the SCC-25 cells were treated with lapatinib for 0 to 24 hrs. At the end of 24 hrs the cells were washed two times with plain MEM medium. Fresh MEM with 10% serum (200 μL/well) was added, followed by treatment with compound A from 24 hrs to 96 hrs.

FADU cells [2] = test: cells; conditions: Homo sapiens
Detroit-562 cells [3] = test: CCK-8 cytotoxicity assay, determination of inhibitory concentrations in Detroit-562 cells; format: cell-based; conditions: 72 hr
Protocol: as §1, §2
(§5) The cells were seeded at a density of 3000 cells/well, in a 200 μL in tissue culture grade 96 well plate and were allowed to recover for 24 hrs in a humidified 5%±0.2 CO2 incubator at 37° C.±0.5° C. […] The final DMSO concentration was 0.5% in wells. Plates were incubated for 48 hrs in humidified 5%±0.2 CO2 incubator at 37±0.5° C. After 48 hrs the plates were removed from CO2 incubator and 5 μL of Cell counting Kit (CCK-8) per well was added. The same plate was kept at 37° C. for 3 hrs, and allowed to come to room temperature. The absorbance at a wavelength of 450 nm was read on Tecan safire reader. The percent cytotoxicity was calculated using the following formula.

SCC-25 cells [4] = test: CCK-8 cytotoxicity assay, determination of inhibitory concentrations in SCC-25 cells; format: cell-based; conditions: for IC50 / IC90: Homo sapiens
Protocol: as §1, §2, §5

FADU cells [5] = test: CCK-8 cytotoxicity assay, determination of inhibitory concentrations in FADU cells; format: cell-based, human; conditions: 72 hr
Protocol: as §1, §2, §5

Detroit-562 cells [6] = test: Combination studies (single and sequential combination dosing), % cytotoxicity in Detroit-562 cells; conditions: for cytotoxicity at 1.8 µM / cytotoxicity at 1 µM: Homo sapiens, Detroit 562, Detroit-562; for % Cytotoxicity: Detroit-562
Protocol: as §1, §2
as §3, with “1.8” for “0.18”, “A” for “B”, “0.5” for “0.2”, “1.3” for “1.1”, “12.1” for “4.8”, “Detroit-562” for “the SCC-25”
as §3, with “1.8” for “0.18”, “2.7” for “0.2”, “14.1” for “1.1”, “25.2” for “4.8”, “Detroit-562” for “SCC-25”
Lapatinib in the following dose of final concentration 1 μM and compound A in the following doses of final concentration 0.5 μM, 1.3 μM and 12.1 μM were analyzed in single dose and in all possible combinations of the dose range for the two anticancer agents mentioned above. The sequence of treatment is as follows; the Detroit-562 cells were treated with lapatinib for 0 to 24 hrs. At the end of 24 hrs the cells were washed two times with plain MEM medium. Fresh MEM with 10% serum (200 μL/well) was added, followed by treatment with compound A from 24 hrs to 96 hrs.
as §4, with “final concentration 1.0 μM and” for “final concentration 0.2 μM and”, “final concentration 2.7 μM, 14.1” for “final concentration 0.2 μM, 1.1”, “2.7 μM, 14.1 μM and” for “0.2 μM, 1.1 μM and”, “μM and 25.2 μM were” for “μM and 4.8 μM were”, “follows; the Detroit-562 cells were” for “follows; the SCC-25 cells were”

FADU cells [7] = conditions: FADU
[8] = tested on: FaDu (hypopharyngeal squamous cell carcinoma) xenografts; test: In vivo efficacy in human head and neck cancer FaDu xenografts; conditions: FaDu xenografts in SCID mice; end of treatment, after 18 days; Compound A 35 mpk i.p. once daily 5 days a week; cisplatin 1 mpk i.p. once a week; cetuximab 2.5 mpk twice a week; 3 weeks
Protocol: In-vivo studies were carried out according to the method described in Clinical cancer search, 2003, 9, 6052-6061; the disclosure of which is incorporated herein by reference for the teaching of the assay.
The in-vivo studies were carried out using Xenograft models in Severe combined immune deficiency (SCID) mice strain—CbySmn.CB17-Prkdcscid/J, by the method described below. The statistically significant number of mice per group (n=6) was chosen in order to be able to statistically evaluate the study data.
FaDu cells were grown in MEM (minimum essential media) medium containing non-essential amino acids and 10% fetal calf serum in 5% CO2 incubator at 37° C. Cells were pelleted by centrifugation at 1000 rpm for 10 minutes. Cells were resuspended in pre-chilled mixture of saline to get a count of 6×10^6 cells per mL; 0.2 ml of this cell suspension was kept on ice and injected by subcutaneous (s.c.) route in SCID mice. Mice were observed every alternate day for palpable tumor mass. Once the tumor size reached a size of 3-5 mm in diameter, animals were randomized into respective groups of treatment and untreated controls. The treatment groups comprised of 5 groups viz. […] The control group received no treatment.
Measurement of tumor was done every 2-3 days apart. Growth inhibition percentage (GI %) was calculated at the end of experiment.

[9] = single agent at IC10, docetaxel study
[10] = single agent at IC30, docetaxel study
[11] = single agent at IC50, cisplatin/5-FU/compound A study
[12] = single agent at IC70, cisplatin/5-FU/compound A study

## CNC(=O)c1cc(Oc2ccc(NC(=O)Nc3ccc(Cl)c(C(F)(F)F)c3)cc2)ccn1.Cc1ccc(S(=O)(=O)O)cc1 [Sorafenib, 4-(4-{3-[4-chloro-3-(trifluoromethyl)phenyl]ureido}phenoxy)N^2-methylpyridine-2-carboxamide-4-methylbenzenesulfonate]
SCC-25 cells [1]; single agent at IC30 (sorafenib 0.18 μM; compound A 0.1 μM)
  cytotoxicity at 0.18 µM: 13%
SCC-25 cells [1]; single agent at IC30 (sorafenib 0.18 μM; compound B 0.2 μM)
  cytotoxicity at 0.18 µM: 13%
FADU cells [2]; single agent at IC30 (sorafenib 3.9 μM; compound A 0.2 μM)
  cytotoxicity at 3.9 µM: 21%
FADU cells [2]; single agent at IC30 (sorafenib 3.9 μM; compound B 2.3 μM)
  cytotoxicity at 3.9 µM: 21%
Detroit-562 cells [3]
  IC30: 1.8 µM
  IC70: 11.2 µM
Detroit-562 cells [3]; Homo sapiens
  IC50: 6.1 µM
  IC90: 15.3 µM
SCC-25 cells [4]; SCC-25, 72 h
  IC50: 2.7 µM
SCC-25 cells [4]; SCC-25 cells, 72 hr
  IC90: 11.7 µM
  IC30: 0.18 µM
  IC70: 6.8 µM
FADU cells [5]
  IC30: 3.9 µM
  IC70: 14.8 µM
FADU cells [5]; Homo sapiens
  IC50: 8.4 µM
  IC90: 30.6 µM
Detroit-562 cells [6]; single agent at IC30 (sorafenib 1.8 μM; compound A 0.5 μM)
  cytotoxicity at 1.8 µM: 14%
Detroit-562 cells [6]; single agent at IC30 (sorafenib 1.8 μM; compound B 2.7 μM)
  cytotoxicity at 1.8 µM: 13%

## CS(=O)(=O)CCNCc1ccc(-c2ccc3ncnc(Nc4ccc(OCc5cccc(F)c5)c(Cl)c4)c3c2)o1 [Lapatinib, N-(3-chloro-4-{[(3-fluorophenyl)methyl]oxy}phenyl)-6-[5-({[2-(methylsulfonyl)ethyl]amino}methyl)-2-furanyl]-4-quinazolinaminebis(4-methylbenzenesulfonate)monohydrate]
SCC-25 cells [1]; single agent at IC30 (lapatinib 0.2 μM; compound A 0.2 μM)
  cytotoxicity at 0.2 µM: 17%
SCC-25 cells [1]; single agent at IC30 (lapatinib 0.2 μM; compound B 0.2 μM)
  cytotoxicity at 0.2 µM: 17%
FADU cells [2]; single agent at IC30 (lapatinib 0.8 μM; compound A 0.2 μM)
  cytotoxicity at 0.8 µM: 19%
FADU cells [2]; single agent at IC30 (lapatinib 0.8 μM; compound B 2.3 μM)
  cytotoxicity at 0.8 µM: 19%
Detroit-562 cells [3]
  IC30: 1.0 µM
  IC70: 7.6 µM
Detroit-562 cells [3]; Homo sapiens
  IC50: 3.9 µM
  IC90: 12.6 µM
SCC-25 cells [4]; SCC-25 cells, 72 hr
  IC90: 9.9 µM
  IC30: 0.2 µM
  IC70: 3.3 µM
SCC-25 cells [4]; SCC-25 cells, 72 hr, read-out: IC50
  IC50: 0.5 µM
FADU cells [5]
  IC30: 0.8 µM
  IC70: 8.7 µM
FADU cells [5]; Homo sapiens
  IC50: 2.6 µM
  IC90: 14.3 µM
Detroit-562 cells [6]; single agent at IC30 (lapatinib 1 μM; compound A 0.5 μM)
  cytotoxicity at 1 µM: 16%
Detroit-562 cells [6]; single agent at IC30 (lapatinib 1.0 μM; compound B 2.7 μM)
  cytotoxicity at 1 µM: 16%

## O=c1[nH]cc(F)c(=O)[nH]1 [Compound 5-FU]
Detroit-562 cells [3]
  IC10: 0.31 µM
  IC30: 1.1 µM
  IC70: 17.6 µM
Detroit-562 cells [3]; Homo sapiens
  IC50: 6.3 µM
  IC90: 33.4 µM
FADU cells [5]
  IC10: 0.31 µM
  IC30: 2.3 µM
  IC70: 22.4 µM
FADU cells [5]; Homo sapiens
  IC50: 11.6 µM
  IC90: 38.3 µM
FADU cells [7]; [9]
  % Cytotoxicity: 6.81%
FADU cells [7]; single agent at IC30, cisplatin/5-FU/compound A study
  % Cytotoxicity: 17.81%
FADU cells [7]; [10]
  % Cytotoxicity: 19.29%
FADU cells [7]; [11]
  % Cytotoxicity: 21.1%
FADU cells [7]; [12]
  % Cytotoxicity: 28.6%
Detroit-562 cells [6]; [9]
  % Cytotoxicity: 9.49%
Detroit-562 cells [6]; [10]
  % Cytotoxicity: 15.39%
Detroit-562 cells [6]; [11]
  % Cytotoxicity: 16.21%
Detroit-562 cells [6]; [12]
  % Cytotoxicity: 19.54%
Detroit-562 cells [6]; single agent at IC90, cisplatin/5-FU/compound A study
  % Cytotoxicity: 12.59%

## N.N.[Cl][Pt][Cl] [Cisplatin]
[8]
  Tumor Growth inhibition (%): 4%
Detroit-562 cells [3]
  IC10: 0.3 µM
  IC30: 3 µM
  IC50: 14.6 µM
  IC70: 43.2 µM
  IC90: 74.5 µM
FADU cells [5]
  IC10: 0.25 µM
  IC30: 3 µM
  IC50: 8.3 µM
  IC70: 30 µM
  IC90: 74 µM

From patent US10980776B2, “Synergistic pharmaceutical combination for the treatment of squamous cell carcinoma of head and neck” (Piramal Enterprises Limited, priority 2011, dated 2021)
